# Laboratory results: patent publication US20140127144A1, “Flavour Modifying Compounds” (Givaudan S. A., priority 2011, published 2014)
# Key:
# [1] = Expert panel tasting, application on Bechamel sauce with cheese; assay type: in vivo, people; settings: for taste description of mixture B compared to mixture A, effect assigned to the compound: 150-300 ppm N-acetyl-DL-glutamic acid plus 50-200 ppm N-formyl-glycine together in Bechamel sauce with cheese, panel of 5
# Protocol: Mixture A: A Bechamel sauce with cheese was prepared by heating up 25 g of wheat flour in 35 g of butter in a saucepan. Let the flour cook shortly. Add 500 g milk, 2.5 g table salt, 0.15 g MSG, 0.075 g nutmeg powder, 0.125 g black pepper and 40 g of cheese powder. Boil the mixture for one minute. Mixture B: The same as mixture A plus 150-300 ppm N-acetyl-DL-glutamic acid plus 50-200 ppm N-formyl-glycine.
# [2] = Expert panel tasting in aqueous solution of 0.5% NaCl; assay type: in vivo, people; settings: panel of 5
# From the text: Mixture A: An aqueous solution of 0.5% NaCl Mixture B: The same as A plus 10 ppm N-formyl-DL-phenylalanine Mixture A: An aqueous solution of 0.5% NaCl Mixture B: The same as A plus 50 ppm of N-acetyl-L-isoleucine Mixture A: An aqueous solution of 0.5% NaCl Mixture B: The same as A plus 10 ppm N-acetyl-DL-valine
# [3] = Expert panel tasting in aqueous solution of 0.5% NaCl and 0.03% MSG; assay type: in vivo, people; settings: panel of 5
# From the text: Mixture C: An aqueous solution of 0.5% NaCl and 0.03% MSG.
# Mixture D: The same as C plus 10 ppm N-formyl-DL-phenylalanine.
# Mixture C: An aquesous solution of 0.5% NaCL and 0.03% MSG
# Mixture D: The same as C plus 50 ppm of N-acetyl-L-isoleucine
# Mixture A: An aqueous solution of 0.5% NaCl and 0.03% of MSG.
# Mixture B: The same as A plus 25 ppm N-formyl-L-lysine
# Mixture C: An aqueous solution of 0.5% NaCl and 0.03% MSG (Mono sodium glutamate)
# Mixture D: The same as C plus 75 ppm of N-acetlyl DL-valine
# [4] = Panel of experienced tasters, instant mashed potato; assay type: in vivo, people; settings: 150 ppm in mashed potato; panel of 8
# Protocol: A standard instant mashed potato powder (Albert Heijn huismerk) was prepared and mixed with 150 ppm of N-acetyl glutamic acid. This product was tasted and compared with the original mashed potatoes by a panel of experienced tasters consisting of 8 people (5 men, 3 women aged 35-54).
# [5] = Panel of experienced tasters, soy milk; assay type: in vivo, people; settings: 100 ppm in soy milk; panel of 8
# Protocol: To a standard soy milk (Alpro) was added 100 ppm of N-acetyl glutamic acid. This product was tasted and compared with the original soy milk by a panel of experienced tasters consisting of 8 people (5 men, 3 women aged 35-54).
# [6] = Panel of experienced tasters, potato chips with cheese sour cream flavour; assay type: in vivo, people; settings: amount not given, panel of 8
# Protocol: Potato chips were prepared in house. A cheese sour cream flavour was prepared by mixing salt (1.5 weight % on the chips), MSG (0.05), whey powder (2.5), cheese powder (1.5), cream powder (0.2), buttermilk powder (0.4) and onion powder (0.2) The powder was applied on plain potato chips. This product was tasted and compared with the chips without N—Ac—Glu by a panel of experienced tasters consisting of 8 people (5 men, 3 women aged 35-54).
# [7] = Panel of experienced tasters, tomato soup; assay type: in vivo, people; settings: 100 ppm in tomato soup; panel of 8
# Protocol: To a standard tomato soup (Albert Heijn huismerk) was added 100 ppm of N-acetyl glutamic acid. This product was tasted and compared with the original tomato soup by a panel of experienced tasters consisting of 8 people (5 men, 3 women aged 35-54).
# [8] = Panel of experienced tasters, cooking oil; assay type: in vivo, people; settings: 200 ppm in cooking oil; panel of 8
# Protocol: 200 ppm of N-acetyl glutamic acid was dissolved in a common cooking oil (Becel kitchen). This product was tasted and compared with the original cooking oil by a panel of experienced tasters consisting of 8 people (5 men, 3 women aged 35-54).
# [9] = Panel of experienced tasters, coffee beverage; assay type: in vivo, people; settings: 150 ppm in coffee beverage; panel of 8
# Protocol: To a coffee beverage (Starbuck's frappucino) was added 150 ppm of N-acetyl glutamic acid. This product was tasted and compared with the original coffee beverage by a panel of experienced tasters consisting of 8 people (5 men, 3 women aged 35-54).
# [10] = Panel of experienced tasters, salad dressing; assay type: in vivo, people; settings: 100 ppm in salad dressing; panel of 8
# Protocol: 100 ppm of N-acetyl glutamic acid was dissolved in a common salad dressing (Remia met magere yoghurt). This product was tasted and compared with the original salad dressing by a panel of experienced tasters consisting of 8 people (5 men, 3 women aged 35-54).
# [11] = Panel of experienced tasters, hamburgers; assay type: in vivo, people; settings: 150 ppm in hamburgers, baked; panel of 8
# Protocol: Hamburgers were prepared from 80% lean beef and 20% fat beef meat containing 0.5% salt, 0.15% black pepper and 0.15% onion powder and 150 ppm of N-acetyl glutamic acid. The hamburgers were baked without additional fat and compared with the same batch of meat to which no N-acetyl glutamic acid was added. This product was tasted and compared with the original hamburgers by a panel of experienced tasters consisting of 8 people (5 men, 3 women aged 35-54).
# [12] = Panel of experienced tasters, cream cheese; assay type: in vivo, people; settings: 150 ppm in cream cheese; panel of 8
# From the text: 150 ppm of N-acetyl glutamic acid was thoroughly mixed into Philadelphia brand cream cheese. This product was tasted and compared with the original cream cheese by a panel of experienced tasters consisting of 8 people (5 men, 3 women aged 35-54).
# [13] = Panel of experienced tasters, vanilla yoghurt; assay type: in vivo, people; settings: 100 ppm in vanilla yoghurt; panel of 8
# Protocol: To a standard vanilla yoghurt (Campina) was added 100 ppm of N-acetyl glutamic acid. This product was tasted and compared with the original vanilla yoghurt by a panel of experienced tasters consisting of 8 people (5 men, 3 women aged 35-54).
# [14] = Expert panel tasting, application on soy sauce; assay type: in vivo, people; settings: for taste description of mixture B compared to mixture A, effect assigned to the compound: 150-300 ppm N-acetyl-DL-glutamic acid plus 50-200 ppm N-formyl-glycine together in 5% soy sauce, panel of 5
# From the text: Mixture A: 5% of a standard soy sauce in water, Mixture B: Same as mixture A plus 150-300 ppm N-acetyl-DL-glutamic acid plus 50-200 ppm N-formyl-glycine. […] This effect could be assigned to N-acetyl glutamic acid.
# [15] = Panel of experienced tasters, cola; assay type: in vivo, people; settings: 100 ppm in cola; panel of 8
# Protocol: To a standard cola (Pepsi or Coke cola) was added 100 ppm of N-acetyl glutamic acid. This product was tasted and compared with the original colas by a panel of experienced tasters consisting of 8 people (5 men, 3 women aged 35-54).
# [16] = Expert panel tasting in chicken broth; assay type: in vivo, people; settings: 100 ppm in chicken broth; panel of 5
# From the text: Mixture A: A chicken broth Mixture B: The same as A plus 100 ppm of N-acetyl-L-tyrosine
# [17] = Expert tasters, beef bouillon tasted warm; assay type: in vivo; settings: 40 ppb in beef bouillon
# From the text: Mixture C: commercially available beef bouillon Mixture D: same as Mixture C plus 40 ppb N-acetyl-methionine The soups were tasted warm by a group of expert tasters.
# [18] = Expert panel tasting in salt reduced soy sauce; assay type: in vivo; settings: 0.04 ppm in salt reduced soy sauce
# From the text: Mixture A: salt reduced Kikkoman soy sauce containing 9% salt Mixture B: same as Mixture A plus 0.04 ppm N-acetyl-methionine
# [19] = Expert panel tasting in aqueous solution of 0.5% NaCl, 0.03% MSG and 0.002% ribonucleotides; assay type: in vivo; settings: 50 ppm in 0.5% NaCl, panel of 5
# From the text: Mixture A: An aqueous solution of 0.5% NaCl, 0.03% MSG and 0.002%
# Ribonucleotides GMP:IMP, ratio 1:1)
# Mixture B: The same as A plus50 ppm of N-hexanoyl-L-leucine
# Mixture A: An aqueous solution of 0.5% NACl, 0.03% MSG and 0.002%
# Ribonucleotides (1:1 GMP, IMP)
# Mixture B: The same as A plus 50 ppm of N-pentanoyl-L-phenylalanine
smiles,measurement,setting,value
CC(=O)NC(CCC(=O)O)C(=O)O (racemic) [N-acetyl-DL-glutamic acid],taste description compared to mixture A,[1]; only 150-300 ppm N-acetyl-DL-glutamic acid on top of mixture A,"more fullness, depth and aftertaste of cheese"
CC(=O)NC(C(=O)O)C(C)C (racemic) [N-acetyl-DL-valine],taste description of mixture B compared to mixture A,[2]; 10 ppm in 0.5% NaCl,more initially salty
same,taste description of mixture D compared to mixture C,[3]; 75 ppm in 0.5% NaCl and 0.03% MSG,more lingering umami and salivating
O=CNC(Cc1ccccc1)C(=O)O (racemic) [N-formyl-DL-phenylalanine],taste description of mixture B compared to mixture A,[2]; 10 ppm in 0.5% NaCl,more salty
same,taste description of mixture D compared to mixture C,[3]; 10 ppm in 0.5% NaCl and 0.03% MSG,more umami
CC(=O)N[C@@H](CCC(=O)O)C(=O)O [N-acetyl glutamic acid],"taste description of mixture B compared to mixture A, effect assigned to the compound",[1],"more lingering, and giving fullness, depth and aftertaste of dairy cheese products"
same,taste description compared with the original product,[4],"more salty, more creamy and more full"
same,taste description compared with the original product,[5],slightly more sweet and masked some of the soy off-notes
same,taste description compared with the chips without N-Ac-Glu,[6],"more salty, more creamy, gave more mouthwatering and had increased cheese intensity"
same,taste description compared with the original product,[7],"less sour, had more body, was more salivating and had a stronger cooked taste"
same,taste description compared with the original product,[8],"more fatty, more creamy, more mouthcoating and gave a better buttery aftertaste"
same,taste description compared with the original product,[9],"slightly more bitter, had reduced metallic retort notes and had increased carmellic notes"
same,taste description compared with the original product,[10],"more balanced, less sour, fuller, salivating and more lingering"
same,taste description compared with the original product,[11],"more meaty, more succulent, more juicy, more fatty and more expanding in the mouth"
same,taste description compared with the original product,[12],"saltier, creamier, more umami, more body, lingering and mouth-coating"
same,taste description compared with the original product,[13],"less sour, more intense vanilla, more creamy, lingering and had more body"
same,"taste description of mixture B compared to mixture A, effect assigned to the compound",[14],more umami and more lingering savoury
same,taste description compared with the original product,[15],"slightly less acidic, more syrupy and more smooth"
CC(=O)N[C@@H](CCC(=O)O)C(=O)O [N-acetyl-L-glutamic acid],taste description compared to mixture A,[14]; only 50 -300 ppm N-acetyl-L-glutamic acid on top of mixture A,more umami and more lingering savoury
CC[C@H](C)[C@H](NC(C)=O)C(=O)O [N-acetyl-L-isoleucine],taste description of mixture B compared to mixture A,[2]; 50 ppm in 0.5% NaCl,more salty
same,taste description of mixture D compared to mixture C,[3]; 50 ppm in 0.5% NaCl and 0.03% MSG,more umami
CC(=O)N[C@@H](Cc1ccc(O)cc1)C(=O)O [N-acetyl-L-tyrosine],taste description of mixture B compared to mixture A,[16],"more salty, lingering umami and shows delayed numbing"
"CSCCC(NC(C)=O)C(=O)O (stereo not shown) [N-acetyl-methionine, N-acetyl-methionine (2-acetamido-4-(methylthio)butanoic acid)]",taste description of mixture D compared to mixture C,[17],"more salty, longer lasting and lifts the garlic component"
same,taste description of mixture B compared to mixture A,[18],more salty and has more upfront salty taste
O=CNCC(=O)O [N-formyl glycine],"taste description of mixture B compared to mixture A, effect assigned to the compound",[1],"stronger initial bite, is more salty and more complex"
same,taste description compared to pure mixture A,[1]; only 50-200 ppm N-formyl glycine on top of mixture A,"more bite, more complex note and saltiness"
same,"taste description of mixture B compared to mixture A, effect assigned to the compound",[14],"stronger initial salt spike, was more long-lasting, complex and more succulent"
same,taste description compared to pure mixture A,[14]; only 50-200 ppm N-formyl-glycine on top of mixture A,"more salty, more complex, long lasting and succulent"
"NCCCCC(NC=O)C(=O)O [N-formyl-L-lysine, alpha-N-formyl-L-lysine]",taste description of mixture B compared to mixture A,[3]; 25 ppm in 0.5% NaCl and 0.03% MSG,more umami
CCCCCC(=O)N[C@@H](CC(C)C)C(=O)O [N-hexanoyl-L-leucine],taste description of mixture B compared to mixture A,[19],more salty and umami
CCCCC(=O)N[C@@H](Cc1ccccc1)C(=O)O [N-pentanoyl-L-phenylalanine],taste description of mixture B compared to mixture A,[19],more salty and umami
